Assay results: patent US12338220B2, “Antiviral pyrazolopiridinone compounds” (Novartis AG, priority 2019, dated 2025)
Where a name gives a salt, the structure may show the parent alone. Read-outs that look alike come from different tables or passages of the source.

What was measured:
CMV-polymerase = CMV-polymerase (Human cytomegalovirus (strain AD169) (HHV-5) (Human herpesvirus 5), UniProt P08546); test: biochemical
CMV = test: microbe, parasite or virus in culture; type: cell-based; details: Human betaherpesvirus 5, 72 h, read-out: CMV-Luc Cellular EC50, NN-NHDF cells, MOI 1, 72 hrs
[1] = read-out: CMV-polymerase Biochemical IC50
[2] = CMV-polymerase Biochemical IC50

| Structure (SMILES) | IC50 (CMV-polymerase; [1]) | EC50 (CMV) | IC50 (CMV-polymerase; [2]) |
| --- | --- | --- | --- |
| Cc1cccc(NS(=O)(=O)C2(CN3CCc4c(C(=O)NCc5ccc(C#N)cc5)nn(C)c4C3=O)CC2)n1 [Example 157, N-(4-Cyanobenzyl)-1-methyl-6-((1-(N-(6-methylpyridin-2-yl)sulfamoyl)cyclopropyl)methyl)-7-oxo-4,5,6,7-tetrahydro-1H-pyrazolo[3,4-c]pyridine-3-carboxamide] | 2 nM | 58 nM |  |
| Cn1nc(C(=O)NCc2ccc(Cl)cc2)c2c1C(=O)N(CC1(S(=O)(=O)Nc3ccccn3)CC1)CC2 [Example 158, N-(4-Chlorobenzyl)-1-methyl-7-oxo-6-((1-(N-(pyridin-2-yl)sulfamoyl)cyclopropyl)methyl)-4,5,6,7-tetrahydro-1H-pyrazolo[3,4-c]pyridine-3-carboxamide] | 3 nM | 37 nM |  |
| COc1cccnc1NS(=O)(=O)C1(CN2CCc3c(C(=O)NCc4ccc(C#N)cc4)nn(C)c3C2=O)CC1 [Example 159, N-(4-Cyanobenzyl)-6-((1-(N-(3-methoxypyridin-2-yl)sulfamoyl)cyclopropyl)methyl)-1-methyl-7-oxo-4,5,6,7-tetrahydro-1H-pyrazolo[3,4-c]pyridine-3-carboxamide] | 13 nM | 298 nM |  |
| COc1ccc(C)nc1NS(=O)(=O)C1(CN2CCc3c(C(=O)NCc4ccc(C#N)cc4)nn(C)c3C2=O)CC1 [Example 160, N-(4-Cyanobenzyl)-6-((1-(N-(3-methoxy-6-methylpyridin-2-yl)sulfamoyl)cyclopropyl)methyl)-1-methyl-7-oxo-4,5,6,7-tetrahydro-1H-pyrazolo[3,4-c]pyridine-3-carboxamide] | 6 nM | 118 nM |  |
| Cc1ncccc1NS(=O)(=O)C1(CN2CCc3c(C(=O)NCc4ccc(C#N)cc4)nn(C)c3C2=O)CC1 [Example 161, N-(4-Cyanobenzyl)-1-methyl-6-((1-(N-(2-methylpyridin-3-yl)sulfamoyl)cyclopropyl)methyl)-7-oxo-4,5,6,7-tetrahydro-1H-pyrazolo[3,4-c]pyridine-3-carboxamide] | 2 nM | 61 nM |  |
| COc1ncccc1NS(=O)(=O)C1(CN2CCc3c(C(=O)NCc4ccc(C#N)cc4)nn(C)c3C2=O)CC1 [Example 162, N-(4-Cyanobenzyl)-6-((1-(N-(2-methoxypyridin-3-yl)sulfamoyl)cyclopropyl)methyl)-1-methyl-7-oxo-4,5,6,7-tetrahydro-1H-pyrazolo[3,4-c]pyridine-3-carboxamide] | 1 nM | 30 nM |  |
| COc1cccc(NS(=O)(=O)C2(CN3CCc4c(C(=O)NCc5ccc(C#N)cc5)nn(C)c4C3=O)CC2)n1 [Example 163, N-(4-Cyanobenzyl)-6-((1-(N-(6-methoxypyridin-2-yl)sulfamoyl)cyclopropyl)methyl)-1-methyl-7-oxo-4,5,6,7-tetrahydro-1H-pyrazolo[3,4-c]pyridine-3-carboxamide] | 2 nM | 67 nM |  |
| Cc1cccnc1NS(=O)(=O)C1(CN2CCc3c(C(=O)NCc4ccc(C#N)cc4)nn(C)c3C2=O)CC1 [Example 164, N-(4-Cyanobenzyl)-1-methyl-6-((1-(N-(3-methylpyridin-2-yl)sulfamoyl)cyclopropyl)methyl)-7-oxo-4,5,6,7-tetrahydro-1H-pyrazolo[3,4-c]pyridine-3-carboxamide] | 6 nM | 157 nM |  |
| Cc1cc(NS(=O)(=O)C2(CN3CCc4c(C(=O)NCc5ccc(Cl)cc5)nn(C)c4C3=O)CC2)no1 [Example 166, N-(4-Chlorobenzyl)-1-methyl-6-((1-(N-(5-methylisoxazol-3-yl)sulfamoyl)cyclopropyl)methyl)-7-oxo-4,5,6,7-tetrahydro-1H-pyrazolo[3,4-c]pyridine-3-carboxamide] | 1 nM | 88 nM |  |
| Cn1nc(C(=O)NCc2ccc(C#N)cc2)c2c1C(=O)N(CC1(S(=O)(=O)Nc3cc(C4CC4)on3)CC1)CC2 [Example 167, N-(4-Cyanobenzyl)-6-((1-(N-(5-cyclopropylisoxazol-3-yl)sulfamoyl)cyclopropyl)methyl)-1-methyl-7-oxo-4,5,6,7-tetrahydro-1H-pyrazolo[3,4-c]pyridine-3-carboxamide] | 4 nM | 517 nM |  |
| Cn1nc(C(=O)NCc2ccc(C#N)cc2)c2c1C(=O)N(CC1(S(=O)(=O)C3CCOCC3)CC1)CC2 [Example 169, N-(4-Cyanobenzyl)-1-methyl-7-oxo-6-((1-((tetrahydro-2H-pyran-4-yl)sulfonyl)cyclopropyl)methyl)-4,5,6,7-tetrahydro-1H-pyrazolo[3,4-c]pyridine-3-carboxamide] | 14 nM | 201 nM |  |
| Cn1nc(C(=O)NCc2ccc(C#N)cc2)c2c1C(=O)N(CC1(S(=O)(=O)C3(C)COC3)CC1)CC2 [Example 172, N-(4-Cyanobenzyl)-1-methyl-6-((1-((3-methyloxetan-3-yl)sulfonyl)cyclopropyl)methyl)-7-oxo-4,5,6,7-tetrahydro-1H-pyrazolo[3,4-c]pyridine-3-carboxamide] |  | 69 nM | 5 nM |
| Cn1nc(C(=O)NCc2ccc(C#N)cc2)c2c1C(=O)N(CC1(S(=O)(=O)C3(CO)COC3)CC1)CC2 [Example 173, N-(4-Cyanobenzyl)-6-((1-((3-(hydroxymethyl)oxetan-3-yl)sulfonyl)cyclopropyl)methyl)-1-methyl-7-oxo-4,5,6,7-tetrahydro-1H-pyrazolo[3,4-c]pyridine-3-carboxamide] | 3 nM | 74 nM |  |
| Cn1nc(C(=O)NCc2ccc(C#N)cc2)c2c1C(=O)N(CC1(S(=O)(=O)C3(CN)COC3)CC1)CC2 [Example 174, 6-((1-((3-(aminomethyl)oxetan-3-yl)sulfonyl)cyclopropyl)methyl)-N-(4-cyanobenzyl)-1-methyl-7-oxo-4,5,6,7-tetrahydro-1H-pyrazolo[3,4-c]pyridine-3-carboxamide] |  | 212 nM | 6 nM |
| COCC(C)(COC)S(=O)(=O)C1(CN2CCc3c(C(=O)NCc4ccc(C#N)cc4)nn(C)c3C2=O)CC1 [Example 179, N-(4-Cyanobenzyl)-6-((1-((1,3-dimethoxy-2-methylpropan-2-yl)sulfonyl)cyclopropyl)methyl)-1-methyl-7-oxo-4,5,6,7-tetrahydro-1H-pyrazolo[3,4-c]pyridine-3-carboxamide] | 2 nM | 49 nM |  |
| Cn1nc(C(=O)NCc2ccc(C#N)cc2)c2c1C(=O)N(CC1(S(=O)(=O)C(C)(CN)CO)CC1)CC2 (stereo not drawn) [Example 183, 6-((1-((1-Amino-3-hydroxy-2-methylpropan-2-yl)sulfonyl)cyclopropyl)methyl)-N-(4-cyanobenzyl)-1-methyl-7-oxo-4,5,6,7-tetrahydro-1H-pyrazolo[3,4-c]pyridine-3-carboxamide] | 5 nM | 220 nM |  |
| Cn1nc(C(=O)NCc2ccc(Cl)cc2)c2c1C(=O)N(CC1(S(=O)(=O)C(C)(C)[C@@H](O)CO)CC1)CC2 [Example 190, (S)—N-(4-Chlorobenzyl)-6-((1-((3,4-dihydroxy-2-methylbutan-2-yl)sulfonyl)cyclopropyl)methyl)-1-methyl-7-oxo-4,5,6,7-tetrahydro-1H-pyrazolo[3,4-c]pyridine-3-carboxamide] | 1 nM | 19 nM |  |
| Cn1nc(C(=O)NCc2ccc(Cl)cc2)c2c1C(=O)N(CC1(S(=O)(=O)C(C)(C)[C@H](O)CO)CC1)CC2 [Example 191, (R)—N-(4-Chlorobenzyl)-6-((1-((3,4-dihydroxy-2-methylbutan-2-yl)sulfonyl)cyclopropyl)methyl)-1-methyl-7-oxo-4,5,6,7-tetrahydro-1H-pyrazolo[3,4-c]pyridine-3-carboxamide] | 1 nM | 5 nM |  |
| Cn1nc(C(=O)NCc2ccc(C#N)cc2)c2c1C(=O)N(CC1(S(=O)(=O)C(C)(C)[C@@H](O)CO)CC1)CC2 [Example 192, (S)-N-(4-Cyanobenzyl)-6-((1-((3,4-dihydroxy-2-methylbutan-2-yl)sulfonyl)cyclopropyl)methyl)-1-methyl-7-oxo-4,5,6,7-tetrahydro-1H-pyrazolo[3,4-c]pyridine-3-carboxamide] | 1 nM | 35 nM |  |
| Cn1nc(C(=O)NCc2ccc(C#N)cc2)c2c1C(=O)N(CC1(S(=O)(=O)C3(C(O)CN)CC3)CC1)CC2 (stereo not drawn) [Example 208, 6-((1-((1-(2-Amino-1-hydroxyethyl)cyclopropyl)sulfonyl)cyclopropyl)methyl)-N-(4-cyanobenzyl)-1-methyl-7-oxo-4,5,6,7-tetrahydro-1H-pyrazolo[3,4-c]pyridine-3-carboxamide] | 1 nM | 51 nM |  |
| Cn1nc(C(=O)NCc2ccc(Cl)cc2)c2c1C(=O)N(CC1(S(=O)(=O)C3(C(O)CN)CC3)CC1)CC2 (stereo not drawn) [Example 209, 6-((1-((1-(2-Amino-1-hydroxyethyl)cyclopropyl)sulfonyl)cyclopropyl)methyl)-N-(4-chlorobenzyl)-1-methyl-7-oxo-4,5,6,7-tetrahydro-1H-pyrazolo[3,4-c]pyridine-3-carboxamide] | 1 nM | 10 nM |  |
| Cn1nc(C(=O)NCc2ccc(C#N)cc2)c2c1C(=O)N(CC1(S(=O)(=O)C(C)(C)[C@H](N)CO)CC1)CC2 [Example 213, (R)-6-((1-((3-Amino-4-hydroxy-2-methylbutan-2-yl)sulfonyl)cyclopropyl)methyl)-N-(4-cyanobenzyl)-1-methyl-7-oxo-4,5,6,7-tetrahydro-1H-pyrazolo[3,4-c]pyridine-3-carboxamide] |  | 81 nM | 2 nM |
| Cn1nc(C(=O)NCc2ccc(Cl)cc2)c2c1C(=O)N(CC1(S(=O)(=O)C(C)(C)[C@H](N)CO)CC1)CC2 [Example 214, (R)-6-((1-((3-Amino-4-hydroxy-2-methylbutan-2-yl)sulfonyl)cyclopropyl)methyl)-N-(4-chlorobenzyl)-1-methyl-7-oxo-4,5,6,7-tetrahydro-1H-pyrazolo[3,4-c]pyridine-3-carboxamide hydrochloride] | 3 nM | 42 nM |  |
| O=C(NCc1ccc(Cl)cc1)c1nn(CCO)c2c1CCN(CC1(S(=O)(=O)C3CC3)CC1)C2=O [Example 218, N-(4-Chlorobenzyl)-6-((1-(cyclopropylsulfonyl)cyclopropyl)methyl)-1-(2-hydroxyethyl)-7-oxo-4,5,6,7-tetrahydro-1H-pyrazolo[3,4-c]pyridine-3-carboxamide] | 6 nM | 42 nM |  |
